Data: patent publication US9403806B1, “Cognition enhancing compounds and compositions, methods of making, and methods of treating” (NeuroSolis, Inc., priority 2010, dated 2016)

Legend:
Type in all cases: cell-based
[1] = molecular target: T1, human muscarinic M3 receptors (Homo sapiens, UniProt P20309); assay: IP production in A9L cells with human M3 receptors (IPOne TR-FRET), Example 28; settings: for huM3/A9L Smax: percentage of maximal stimulation by carbachol; for huM3/A9L ED50 relative to CCh*: potency relative to carbachol at its EC50, semi-quantitative
T1 construct: host or cells: A9L cells
T1 sequence (P20309 whole entry): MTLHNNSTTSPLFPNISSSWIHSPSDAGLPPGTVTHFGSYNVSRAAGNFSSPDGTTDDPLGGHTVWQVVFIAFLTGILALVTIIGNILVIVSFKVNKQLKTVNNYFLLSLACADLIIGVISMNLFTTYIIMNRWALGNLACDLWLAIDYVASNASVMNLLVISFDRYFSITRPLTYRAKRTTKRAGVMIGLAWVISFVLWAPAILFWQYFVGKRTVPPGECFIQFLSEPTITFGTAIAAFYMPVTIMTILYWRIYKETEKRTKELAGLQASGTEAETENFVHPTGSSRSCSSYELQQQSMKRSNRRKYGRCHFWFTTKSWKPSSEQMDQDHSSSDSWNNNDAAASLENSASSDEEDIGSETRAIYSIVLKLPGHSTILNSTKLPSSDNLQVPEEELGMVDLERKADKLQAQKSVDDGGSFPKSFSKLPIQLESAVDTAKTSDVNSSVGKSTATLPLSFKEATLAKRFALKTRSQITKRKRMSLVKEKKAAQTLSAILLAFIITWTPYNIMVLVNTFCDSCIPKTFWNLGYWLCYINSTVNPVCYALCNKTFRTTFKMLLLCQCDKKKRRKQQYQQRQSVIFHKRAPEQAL
Protocol: (§1) Muscarinic M1 and M3 agonist activity was evaluated by measuring the stimulation of inositol phosphate (IP) production in the presence of lithium chloride from A9L cells transfected with expression plasmids containing human muscarinic M1 and M3 receptors, respectively. The cell lines were a gift from Professor W Messer, and the methods were as described in Tejada F R et al. J. Med. Chem. 2006; 49: 7518-31 except that the assay was scaled down to run in 384 well plates, and IP was measured in the cell lysates using the non-isotopic IPOne TR-FRET assay (CIS-BIO, Inc).
(§2) Cells were grown to 90% confluence in 384 well hi-base plates (Greiner Bio-One), compounds were added at suitable concentrations in growth medium containing 10 mM LiCl, buffered with an extra 10 mM HEPES (pH7.4), and incubated for 60 minutes at 37° C. Cells were lysed and assayed for IP following the manufacturer's instructions.
(§3) The value for a full agonist is 100%, while partial agonists give values below 100%.

[2] = molecular target: T2, human muscarinic M1 receptors (Homo sapiens, UniProt P11229); assay: IP production in A9L cells with human M1 receptors (IPOne TR-FRET), Example 28; settings: for huM1/A9L Smax: percentage of maximal stimulation by carbachol; for huM1/A9L ED50 relative to CCh*: potency relative to carbachol at its EC50, semi-quantitative; for potency and efficacy at M1 muscarinic receptors (in words): huM1/A9L
T2 construct: host or cells: A9L cells
T2 sequence (P11229 1-460): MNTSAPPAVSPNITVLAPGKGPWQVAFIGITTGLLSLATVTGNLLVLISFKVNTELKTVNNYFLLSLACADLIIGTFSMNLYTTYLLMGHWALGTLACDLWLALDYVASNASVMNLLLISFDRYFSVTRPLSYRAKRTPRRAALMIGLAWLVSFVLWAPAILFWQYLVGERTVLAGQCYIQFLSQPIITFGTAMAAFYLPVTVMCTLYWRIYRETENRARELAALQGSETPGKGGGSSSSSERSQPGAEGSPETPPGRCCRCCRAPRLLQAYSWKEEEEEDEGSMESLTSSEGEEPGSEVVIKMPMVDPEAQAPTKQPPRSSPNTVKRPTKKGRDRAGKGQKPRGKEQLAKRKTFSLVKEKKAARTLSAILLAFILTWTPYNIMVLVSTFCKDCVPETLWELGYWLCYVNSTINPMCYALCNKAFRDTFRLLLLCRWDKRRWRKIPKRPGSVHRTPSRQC
Protocol: as §1, §2, §3

[3] = molecular target: T2, human muscarinic M1 receptors; settings: relative to the potency of carbachol at its EC50
Protocol: (§4) Muscarinic M1 and M3 agonist activity was evaluated by measuring the stimulation of inositol phosphate (IP) production in the presence of lithium chloride from A9L cells transfected with expression plasmids containing human muscarinic M1 and M3 receptors, respectively. The cell lines were a gift from Professor William Messer, and the methods were as described in Tejada et al. (J. Med. Chem. 2006; 49: 7518-31) except that the assay was scaled down to run in 384-well plates and the concentration of inositol-1-phosphate in the lysates was determined using the non-isotopic IP-One Terbium TR-FRET assay kit (Cisbio Bioassays, cat. #62IPAPEJ) according to the manufacturer's instructions.
as §2, with “384-well high-base, small-volume” for “384 well hi-base”, “(pH=7.4),” for “(pH7.4),”
as §3

[4] = molecular target: T1, human muscarinic M3 receptors; settings: relative to the potency of carbachol at its EC50
Protocol: as §4
as §2, with “384-well high-base, small-volume” for “384 well hi-base”, “(pH=7.4),” for “(pH7.4),”
as §3

SMILES	huM3/A9L Smax [1]	huM3/A9L ED50 relative to CCh* [1]	huM1/A9L Smax [2]	huM1/A9L ED50 relative to CCh* [2]	potency and efficacy at M1 muscarinic receptors (in words) [2]	huM1/A9L Potency relative to carbachol [3]	huM3/A9L Potency relative to carbachol [4]
Nc1noc(C2CCCNC2)n1 (stereo not drawn) [Compound 27, 3-Amino-5-(piperidin-3-yl)-1,2,4-oxadiazole]	20%	+/− (+/− potency 0.5-2x CCh)	97%	+ (+ potency 2-10x CCh)	–	–	–
Cc1noc(C2CCCN(C)C2)n1 (stereo not drawn) [Compound 5, 3-Methyl-5-(1-methylpiperidin-3-yl)-1,2,4-oxadiazole]	20%	inactive	20%	inactive	essentially inactive	–	–
Cc1noc([C@H]2CNC[C@@H](C)C2)n1 [Compound 20]	20%	inactive	9%	inactive	–	–	–
Cc1noc([C@@H]2CCCN[C@@H]2C)n1 [Compound 24]	32%	inactive	41%	−− (−− potency <0.1x CCh)	–	–	–
Cc1noc(C23CNCC2C3)n1 (racemic) [Compound 121, 5-(4,4-d2-3-Azabicyclo[3.1.0]hexan-1-yl)-3-methyl-1,2,4-oxadiazole]	–	–	–	–	–	1.10	0.45
Cc1noc([C@H]2CCCN[C@@H]2C)n1 [Compound 25]	20%	inactive	3%	inactive	–	–	–
c1nsc(C2CCCNC2)n1 (stereo not drawn) [Compound 12b, 5-(piperidin-3-yl)-1,2,4-thiadiazol]	60%	−− (−− potency <0.1x CCh)	100%	− (− potency <0.5-0.1x CCh)	–	–	–
Cc1noc([C@H]2CNCC[C@H]2C)n1 [Compound 22]	15%	inactive	7%	inactive	–	–	–
Cc1noc(C2CCNC2)n1 (stereo not drawn) [Compound 31, 3-methyl-5-(pyrrolidin-3-yl)-1,2,4-oxadiazole]	60%	− (− potency <0.5-0.1x CCh)	113%	+ (+ potency 2-10x CCh)	–	–	–
Cc1nsc(C2CCCNC2)n1.Cl (stereo not drawn) [Compound 12a, 3-methyl-5-(piperidin-3-yl)-1,2,4-thiadiazole hydrochloride]	58%	+ (+ potency 2-10x CCh)	101%	+ (+ potency 2-10x CCh)	–	–	–
Cc1noc(C2CCC(C)NC2)n1 (stereo not drawn) [Compound 18, 3-Methyl-5-(6-methylpiperidin-3-yl)-1,2,4-oxadiazole]	18%	inactive	14%	inactive	–	–	–
Cc1noc([C@@H]2CNCC[C@H]2C)n1 [Compound 23]	19%	inactive	23%	inactive	–	–	–
CCc1noc(C2CCCNC2)n1 (stereo not drawn) [Compound 38, 3-ethyl-5-(piperidin-3-yl)-1,2,4-oxadiazo1e]	<14%	inactive	15%	inactive	essentially inactive	–	–
Cc1noc([C@H]2CC[C@H](C)NC2)n1 [Compound 19]	34%	inactive	15%	inactive	–	–	–
Cc1noc([C@@H]2CNC[C@@H](C)C2)n1 [Compound 21]	14%	inactive	18%	inactive	–	–	–
